Tests used:
Assay in all cases: Peptidase detection on Columbia medium (Example 2)
Format in all cases: cell-based
Details in all cases: 40 mg in 400 ml Columbia; 24 h 37° C.
[1] = tested on: Enterococcus faecium NCTC 7 171; parameters: key to Growth: NG: No growth; 0.5: weak growth; 1: moderate growth; 2: good growth; key to Fluo. / Color / Color post-acid.: —: no color
Protocol: (§1) The 6 media were distributed into Petri dishes 90 mm in diameter, in a proportion of 20 ml per dish.
(§2) Seventeen strains of microorganisms stemming from collections and belonging to various species of bacteria and yeasts are inoculated in spots of approximately 10 000 colony-forming units.
(§3) The media are incubated for 24 hours at 37° C., and then the colonies formed are examined visually, with or without the addition of acid and under a UV lamp at 365 nm.

[2] = tested on: Salmonella typhimurium NCTC 74; parameters: key to Growth: NG: No growth; 0.5: weak growth; 1: moderate growth; 2: good growth
Protocol: as §1, §2, §3

[3] = tested on: Bacillus subtilis NCTC 9 372; parameters: key to Growth: NG: No growth; 0.5: weak growth; 1: moderate growth; 2: good growth; key to Fluo. / Color / Color post-acid.: —: no color
Protocol: as §1, §2, §3

[4] = tested on: Candida glabrata NCPF 3 943; parameters: key to Growth: NG: No growth; 0.5: weak growth; 1: moderate growth; 2: good growth; key to Fluo. / Color / Color post-acid.: —: no color
Protocol: as §1, §2, §3

[5] = tested on: Candida albicans ATCC 90 028; parameters: key to Growth: NG: No growth; 0.5: weak growth; 1: moderate growth; 2: good growth; key to Fluo. / Color / Color post-acid.: —: no color
Protocol: as §1, §2, §3

[6] = tested on: Enterobacter cloacae NCTC 11 936; parameters: key to Growth: NG: No growth; 0.5: weak growth; 1: moderate growth; 2: good growth
Protocol: as §1, §2, §3

[7] = tested on: Streptococcus pyogenes NCTC 8 306; parameters: key to Growth: NG: No growth; 0.5: weak growth; 1: moderate growth; 2: good growth; key to Fluo. / Color / Color post-acid.: —: no color
Protocol: as §1, §2, §3

[8] = tested on: Pseudomonas aeruginosa NCTC 10 662; parameters: key to Growth: NG: No growth; 0.5: weak growth; 1: moderate growth; 2: good growth; key to Color: —: no color
Protocol: as §1, §2, §3

[9] = tested on: Staphylococcus aureus NCTC 11 939; parameters: key to Growth: NG: No growth; 0.5: weak growth; 1: moderate growth; 2: good growth; key to Fluo. / Color / Color post-acid.: —: no color
Protocol: as §1, §2, §3

[10] = tested on: Listeria monocytogenes NCTC 11 994; parameters: key to Growth: NG: No growth; 0.5: weak growth; 1: moderate growth; 2: good growth; key to Fluo. / Color / Color post-acid.: —: no color
Protocol: as §1, §2, §3

[11] = tested on: Serratia marcescens NCTC 10 211; parameters: key to Growth: NG: No growth; 0.5: weak growth; 1: moderate growth; 2: good growth
Protocol: as §1, §2, §3

[12] = tested on: Enterococcus faecalis NCTC 775; parameters: key to Growth: NG: No growth; 0.5: weak growth; 1: moderate growth; 2: good growth; key to Fluo. / Color / Color post-acid.: —: no color
Protocol: as §1, §2, §3

[13] = tested on: Staphylococcus aureus NCTC 6 571; parameters: key to Growth: NG: No growth; 0.5: weak growth; 1: moderate growth; 2: good growth; key to Fluo. / Color / Color post-acid.: —: no color
Protocol: as §1, §2, §3

[14] = tested on: Escherichia coli NCTC 10 418; parameters: key to Growth: NG: No growth; 0.5: weak growth; 1: moderate growth; 2: good growth
[15] = tested on: Yersinia enterocolitica NCTC 11 176; parameters: key to Growth: NG: No growth; 0.5: weak growth; 1: moderate growth; 2: good growth; key to Color: —: no color
Protocol: as §1, §2, §3

[16] = tested on: Providencia rettgeri NCTC 7 475; parameters: key to Growth: NG: No growth; 0.5: weak growth; 1: moderate growth; 2: good growth
Protocol: as §1, §2, §3

[17] = tested on: Staphylococcus epidermidis NCTC 11 047; parameters: key to Growth: NG: No growth; 0.5: weak growth; 1: moderate growth; 2: good growth; key to Fluo. / Color / Color post-acid.: —: no color
Protocol: as §1, §2, §3

Color [1]	Growth [1]	Growth [2]	Color [3]	Growth [3]	Color [6]	Growth [6]	Color [7]	Growth [7]	Color [8]	Growth [8]	Color [10]	Growth [10]	Color [11]	Structure (SMILES)	Color [4]	Growth [4]	Color [5]	Growth [5]	Color [9]	Growth [9]	other results
—	1	2	—	1	Orange	2	—	NG	—	2	—	1	Orange	C[n+]1ccc(C=Cc2ccc(NC(=O)[C@@H](N)Cc3ccc(O)cc3)cc2)c2ccccc21.Cl.[Cl-] [Tyr-ASQM^+, L-tyrosyl-4-(4′-amidostyryl)-N-methylquinolinium dihydrochloride]	—	NG	—	0.5	—	NG	Growth [11]: 2; Growth [12]: 1; Color [13]: —; Growth [13]: NG; Color [14]: Orange; Growth [14]: 2; Growth [15]: 2; Growth [16]: 2; Color [17]: —; Growth [17]: 0.5
—	1	2	—	1	Orange	2	—	1	Orange	2	—	1	Orange	C[n+]1ccc(C=Cc2ccc(NC(=O)CC[C@H](N)C(=O)O)cc2)c2ccccc21.Cl.[Cl-] [λ-Glu-ASQM^+, L-gamma-glutamyl-4-(4′-amidostyryl)-N-methylquinolinium (dichloride)]	—	1	—	1	—	1	Color [2]: Orange; Growth [11]: 2; Color [12]: —; Growth [12]: 1; Color [13]: —; Growth [13]: 1; Color [14]: Orange; Growth [14]: 2; Color [15]: —; Growth [15]: 2; Color [16]: Orange; Growth [16]: 2; Color [17]: —; Growth [17]: 1

Reference: patent publication US8592174B2, “Peptidase substrates” (bioMérieux, S.A., priority 2009, dated 2013)
